Broadly, the mass density is mass per unit of volume.

This is an account of results in the NIST ThermoML archive (doi:10.1016/j.jct.2008.05.001).

The conditions of the series: 293 K, 101.33 kPa, Pycnometric method.

± gives the expanded uncertainty stated by the source.

As for `CCC1COC(=O)O1` (configuration not stated) [1,2-butylene carbonate], the mass density (Liquid) was found to be 1140 ± 10 kg/m3.
Consider `O=C1OCCO1` [ethylene carbonate], for which, for the setting “Crystal”, the mass density is reported as 1320 ± 10 kg/m3.
